Laboratory results taken from patent US12516038B2, “Inhibitors of antigen presentation by HLA-DR” (Janssen Pharmaceutica NV, priority 2020, dated 2026).

Columns and labels:
[1] = biological target: HLA-DRB1*0401 (Homo sapiens (Human), UniProt P01903+P01911, A100K/A169T/DEL228-266/F76Y/I96L/K127E/L162R/M171V/N62H/P40V/Q125Y/R42H/S133A/S149N/S66Y/V115G/V209L/W38E); assay: HLA-DR4 HTRF assay; assay type: binding; settings: inhibition of loading of Alexa Fluor 647-labeled Cit-CII peptide onto HLA-DR4 (CLIP cleaved)
Text: (§1) The screening was made through two sets of HLA-DR/peptide-dependent assays: a peptide-dependent Homogeneous Time Resolved Fluorescence (HTRF) binding assay followed by an HLA-DR dependent, peptide-specific T cell functional assay (HLA-DR4-restricted peptide-specific T cell-based assay hybridoma assay). The HTRF binding assay was designed to measure the ability of the small molecule to inhibit the loading of a fluorescently labeled high-affinity peptide onto HLA-DR peptide binding groove. The peptide-specific T cell functional assay assesses T cell activation resulting from proper peptide presentation onto HLA-DR expressed on the surface of the antigen-presenting cells to the T cell and is used to screen compounds able to inhibit such HLA-DR/peptide-dependent T cell activation.
The HLA-DR4 HTRF assay is based on HTRF technology and designed to measure ability of compounds to prevent loading of high-affinity Alexa Fluor 647-labeled Citrullinated Collagen 111236-1249 peptide (named Cit-CII/AF647, aa1236-1249, LQYM-Cit-ADQAAGGLR; Alexa Fluor 647 dye commercially available from Invitrogen) onto HLA-DRB1*0401. The HTRF assay technology is based on the energy transfer between two fluorophores, a donor and an acceptor, when in close proximity. The HLA-DR4 protein construct was uniquely designed for this assay and has (i) the α and […] subunits fused to human Fc chains and (ii) the invariant chain-associated peptide (CLIP peptide, aa85-101), the universal moderate/low-affinity HLA-DR binder, attached to the beta chain through a HRV3C protease-cleavable linker.
Because of the low stability of peptide free HLA-DR4 heterodimer, the construct was purified and delivered with CLIP peptide attached to the N-terminal of the β chain. The HLA-DR4 heterodimer was pre-treated with 3 μL HRV3C protease (Novagen E71493-3) (˜2 U/μL) per mg of the cleavable protein to cleave CLIP peptide and incubated overnight (>16 hrs) at 4° C. This method yielded at least 80% cleavage and allowed the CLIP peptide to be potentially exchanged with the fluorescently labeled high affinity cit-CII1236-1249 peptide. A batch of […] protein with CLIP cleaved was prepared for multiple experiments and was stable for several months when stored at 4° C.
In this assay, anti-human Fc antibody labeled with Tb-Cryptate probe was used as the donor (commercially available from Cisbio—PAb Anti-human IgG-Tb Cryptate, Cat #61HFCTAB) and high affinity peptide Citrullinated CII (cit-CII) labeled with Alexa 647 fluorophore was utilized as the acceptor. Inhibitors of the exchange of the pre-cleaved CLIP peptide for the high affinity cit-CII1236-1249 peptide onto HLA-DRB1*04:01 caused a decrease in HTRF signal as measured by the ratio of the 665 nm/620 nm emitted signal. Screening compounds were robotically pre-dispensed (150 nL, Hummingbird, DigiLab/CyBio AG) onto black, round bottom, nontreated, 1536-well assay plates (Corning #3939), were incubated with 3 nM HLA-DR4 (with CLIP cleaved) plus 1 nM Human IgG-Tb (anti-Fc-Tb) Antibody for 45 min prior to addition of 40 nM Cit-CII peptide labeled with Alexa-647. The negative control was DMSO plus 1 nM Human IgG-Tb (anti-Fc-Tb) Antibody, incubated for 45 minutes before addition of 40 nM Cit-CII peptide labeled with Alexa-647. The positive control was DMSO plus 3 nM HLA-DR4 (with CLIP cleaved) plus 1 nM Human IgG-Tb (anti-Fc-Tb) Antibody with 40 nM Cit-CII peptide labeled with Alexa-647 added after a 45-minute incubation. Plates were centrifuged at 1000 rpm for 1 minute and then incubated at 37° C., at 90% relative humidity for 90 minutes. After incubation, plates were read on a spectrophotometer, the Pherastar FS (BMG Labtech), in HTRF mode. The HTRF ratio as well as percent inhibition was calculated. Curve fitting and IC50 calculation for dose response data was performed by Microsoft Excel, 3DX (Janssen proprietary software) or Graphpad Prism (Graphpad Software, San Diego, CA). […]

[2] = tested on: HLA-DR4 restricted mouse T cell hybridoma line (DR4.CII.36.8) with HLA-DRB1*04:01-expressing Boleth cells; assay: HLA-DR4-restricted peptide-specific T cell-based assay (hybridoma assay); settings: Mus musculus, T-cell, 6 h, inhibition of IL-2 production, CII259-273 peptide presented by Boleth cells
Text: as §1
HLA-DR4-Restricted Peptide-Specific T Cell-Based Assay (Hybridoma Assay)
The hybridoma assay was used to measure compound inhibition of TL-2 production from an HLA-DR4 restricted mouse T cell hybridoma line (DR4.CII.36.8) that was antigen-specific for collagen II259-273 (CII259-273) peptide when presented with an HLA-DR4 expressing Antigen Presenting Cell (APC) cell line (i.e., Boleth).
To the HLA-DRB1*04:01-expressing B cell line (Boleth cell line from International Histocompatibility Working Group (IHWG), ref #IHW09031) was presented the collagen II 259-273 peptide (CII259-273, GIAGFKGEQGPKGEP) to mouse T cell hybridoma (DR4.CII.36.8 T cell hybridoma; clone 36.8, expressing a CII259-273-specific, HLA-DRB1*04:01-restricted T cell receptor). Upon proper CII259-273 peptide presentation, the T cell hybridoma was activated and thus produced IL-2 cytokine, whose level in the cell culture supernatant was detected using mouse IL-2 AlphaLISA kit (Perkin Elmer, Cat: AL511F).
This assay was performed in a 384-well plate (polypropylene V-bottom Greiner bio-one, ref #784075) by: (i) pre-incubation of 20 μL of 1.25 million/mL Boleth cells (25,000 cells) resuspended in DMEM/1% fetal calf serum (FCS; Gibco, ref #16140-071) with 20 μL of 2.5× final concentration of compound of interest in DMEM/1% serum/0.75% DMSO at 37° C. for 1 hr in the incubator, then (ii) 10 μL of 5 million/mL (50,000 cells) DR4.CII.36.8 T cell hybridoma cells resuspended in DMEM/1% FCS was added and incubated for 6 h at 37° C. in the incubator. Supernatant was then collected and mouse IL-2 detected using AlphaLISA kit (ref #AL511F). Compounds were tested in duplicate, with 8-point titration. Mean±SD of AlphaLISA units at each compound concentration was used for compound IC50 calculation. The negative control for this experiment was run without peptide stimulation and used a DMSO vehicle wherein no compound of interest was added. The positive control was run with peptide stimulation and used a DMSO vehicle wherein no compound of interest was added. Both the negative and positive controls were run in 8 replicates each. Curve fitting and IC50 calculation for dose response data was performed by GraphPad software 6 or higher (GraphPad Software, San Diego, CA). Dose response data was plotted versus the log of compound concentration and IC50 was determined using 4-parameter logistic (4-PL) curve fitting.

| Compound | IC50 [1] [nM] | IC50 [2] [nM] |
| --- | --- | --- |
| O=C1CCOc2cc(OC(c3ccncc3)c3ccccn3)ccc21 (racemic) [Example 6, (R,S)-7-(Pyridin-2-yl(pyridin-4-yl)methoxy)chroman-4-one] | 1800 | 1400 |
| N#Cc1ccc(C(Oc2ccc3c(c2)OCCC3=O)c2ccncc2)cc1 (racemic) [Example 10, (R,S)-4-(((4-Oxochroman-7-yl)oxy)(pyridin-4-yl)methyl)benzonitrile] | 770 | 8700 |
| Cc1c(OC(c2ccncc2)c2ccc(C(N)=O)cc2)ccc2c1OC(C)(C)CC2=O (racemic) [Example 113, (R,S)-4-(pyridin-4-yl((2,2,8-trimethyl-4-oxochroman-7-yl)oxy)methyl)benzamide] | 820 | 1000 |
| Cc1c(OC2CCCc3cc(C#N)ccc32)ccc2c1OCCC2=O (racemic) [Example 122, (R,S)-5-((8-Methyl-4-oxochroman-7-yl)oxy)-5,6,7,8-tetrahydronaphthalene-2-carbonitrile] | 1100 | 15000 |
| Cc1c(OC2CCCc3cc(C(N)=O)ccc32)ccc2c1OCCC2=O (racemic) [Example 123, (R,S)-5-((8-Methyl-4-oxochroman-7-yl)oxy)-5,6,7,8-tetrahydronaphthalene-2-carboxamide] | 520 | 15000 |
| O=C1CCOc2cc(O[C@@H](c3ccncc3)c3cccc(O)c3)ccc21 (single isomer, unassigned) [Example 5b, (*S)-7-((3-Hydroxyphenyl)(pyridin-4-yl)methoxy)chroman-4-one] | 14000 | 5200 |
| N#Cc1ccccc1[C@@H](Oc1ccc2c(c1)OCCC2=O)c1ccncc1 (single isomer, unassigned) [Example 7b, (*S)-2-(((4-Oxochroman-7-yl)oxy)(pyridin-4-yl)methyl)benzonitrile] | 960 | 5400 |
| NC(=O)c1ccccc1[C@H](Oc1ccc2c(c1)OCCC2=O)c1ccncc1 (single isomer, unassigned) [Example 8a, (*R)-2-(((4-Oxochroman-7-yl)oxy)(pyridin-4-yl)methyl)benzamide] | 680 | > 15000 |
| NC(=O)c1ccccc1[C@@H](Oc1ccc2c(c1)OCCC2=O)c1ccncc1 (single isomer, unassigned) [Example 8b, (*S)-2-(((4-Oxochroman-7-yl)oxy)(pyridin-4-yl)methyl)benzamide] | 820 | 6500 |
| N#Cc1ccc([C@H](Oc2ccc3c(c2)OCCC3=O)c2ccncc2)cc1 (single isomer, unassigned) [Example 10b, (*S)-4-(((4-oxochroman-7-yl)oxy)(pyridin-4-yl)methyl)benzonitrile] | 910 | > 15000 |
| COc1cccc([C@H](Oc2ccc3c(c2)OCCC3=O)c2ccncc2)c1 (single isomer, unassigned) [Example 13a, (*R)-7-((3-methoxyphenyl)(pyridin-4-yl)methoxy)chroman-4-one] | 2000 | > 15000 |
| COc1ccccc1[C@@H](Oc1ccc2c(c1)OCCC2=O)c1ccncc1 (single isomer, unassigned) [Example 14b, (*S)-7-((2-Methoxyphenyl)(pyridin-4-yl)methoxy)chroman-4-one] | 1900 | 11000 |
| Cc1cc([C@@H](Oc2ccc3c(c2)OCCC3=O)c2ccc(C(N)=O)cc2)ccn1 (single isomer, unassigned) [Example 15b, (*S)-4-((2-Methylpyridin-4-yl)((4-oxochroman-7-yl)oxy)methyl)benzamide] | 770 | 8100 |
| O=C1CCOc2cc(O[C@@H](c3ccncc3)c3ccc(OCc4ccccc4)cc3)ccc21 (single isomer, unassigned) [Example 16a, (*R)-7-((4-(benzyloxy)phenyl)(pyridin-4-yl)methoxy)chroman-4-one] | 8100 | 12000 |
| O=C1CCOc2cc(O[C@H](c3ccncc3)c3ccc(OCc4ccccc4)cc3)ccc21 (single isomer, unassigned) [Example 16b, 7-((4-(benzyloxy)phenyl)(pyridin-4-yl)methoxy)chroman-4-one] | 9900 | > 15000 |
| NC(=O)c1ccc(C(Oc2ccc3c(c2)OCCC3=O)c2ccnc(C(F)(F)F)c2)cc1 (single isomer, unassigned) [Example 18a, (*R)-4-(((4-oxochroman-7-yl)oxy)(2-(trifluoromethyl)pyridin-4-yl)methyl)benzamide] | 1400 | > 15000 |
| NC(=O)c1ccc([C@@H](Oc2ccc3c(c2)OCCC3=O)c2ccncc2F)cc1 (single isomer, unassigned) [Example 20a, (*R)-4-((3-fluoropyridin-4-yl)((4-oxochroman-7-yl)oxy)methyl)benzamide] | 1200 | 6900 |
| NC(=O)c1ccc([C@H](Oc2ccc3c(c2)OCCC3=O)c2ccncc2F)cc1 (single isomer, unassigned) [Example 20b, (*S)-4-((3-fluoropyridin-4-yl)((4-oxochroman-7-yl)oxy)methyl)benzamide] | 910 | 6200 |
| CCCc1c(O[C@H](c2ccncc2)c2ccc(C(N)=O)cc2)ccc2c1OCCC2=O (single isomer, unassigned) [Example 80b, (*S)-4-(((4-Oxo-8-propylchroman-7-yl)oxy)(pyridin-4-yl)methyl)benzamide] | 960 | – |
